Reference: patent US6441028B2, “Microbicidal compositions” (Bayer Aktiengesellschaft, priority 1995, dated 2002)

Tests used:
Puccinia recondita = test: Activity against Puccinia recondita in wheat (residual-protective and systemic action); type: in vivo; conditions: mixture of the labelled component I with component II; wheat; a) spray 0.02% of active ingredient, b) 0.006% based on soil volume; assessed 12 days after infection
Fusarium nivale = test: Activity against Fusarium nivale in rye (seed dressing, field); type: in vivo; conditions: mixture of the labelled component I with component II, rye cv. Tetrahell seed dressing, 20 or 6 ppm of a.i. based on seed weight
Procedure: which has been infected naturally with Fusarium nivale is dressed with the test fungicide in a roller mixer, the following concentrations being used: 20 or 6 ppm of a.i. (based on the seed weight). The infected and treated rye is sown in the open in October in plots of 3 m length and 6 seed rows, using a seed drill. 3 replications per concentration. Until the disease level is evaluated, the experimental field is subjected to the field conditions of normal crop management (preferably in a region with unbroken snow cover during the winter months). To assess the phytotoxicity, seedling emergence is scored in autumn and plant density/tillering in spring. To assess the activity of the active ingredient, the percentage of Fusarium-infected plants is evaluated early in the year, immediately after the snows have melted.

Phytophthora = conditions: mixture of the labelled component I, in particular in combination with metalaxyl (II A), benalaxyl (II D) or R-metalaxyl (II B); potato (Bintje); a) spray 0.02% of active ingredient, b) 0.002% based on soil volume; 5 days incubation
Procedure: 2-3 week old potato plants (Bintje variety) are grown for 3 weeks and then sprayed with a spray mixture (0.02% of active ingredient) prepared with a wettable powder of the active ingredient. After 24 hours, the treated plants are infected with a sporangia suspension of the fungus. The fungus infestation is assessed after the infected plants have been incubated for 5 days at a relative atmospheric humidity of 90-100% and 20° C.
A spray mixture (0.002% of active ingredient based on the soil volume) prepared with a wettable powder of the active ingredient is poured next to 2-3 week old potato plants (Bintje variety) which have been grown for 3 weeks. […] After 48 hours, the treated plants are infected with a sporangia suspension of the fungus. Fungus infestation is assessed after the infected plants have been incubated for 5 days at a relative atmospheric humidity of 90-100% and 20° C.

Plasmopara viticola = test: Activity against Plasmopara viticola in grapevines; conditions: mixture of the labelled component I with component II = ofurace (II E), oxadixyl (II F), or in particular metalaxyl (II A) or R-metalaxyl (II B); grapevine seedlings; 0.02% of active ingredient; assessed 6 days after infection
Procedure: Grapevine seedlings at the 4-to-5-leaf stage are sprayed to drip point with an aqueous spray mixture prepared with a wettable powder of the active ingredient mixture (0.02% of active ingredient) and, 24 hours later, infected with a sporangia suspension of the fungus. The fungus infestation is assessed 6 days after infection, during which time a relative atmospheric humidity of 95 to 100% and a temperature of 20° are maintained.

Erysiphe graminis = test: Activity against Erysiphe graminis in barley (residual-protective and systemic action); type: in vivo; conditions: mixture of the labelled component I with component II; barley; a) spray 0.02% of active ingredient, b) 0.002% based on soil volume; assessed 12 days after infection
Procedure: The infected plants are placed in a greenhouse at 22°. The fungus infestation is assessed 12 days after the infection. […] 48 hours later, the plants are dusted with conidia of the fungus. The infected plants are placed in a greenhouse at 22°. The fungus infestation is assessed 12 days after the infection.

Botrytis cinerea = test: Activity against Botrytis cinerea on apple fruits (residual-protective action); type: in vivo; conditions: mixture of the labelled component I with component II = furalaxyl (II C), metalaxyl (II A) or R-metalaxyl (II B); damaged apples; 0.02% of active ingredient; one week incubation
Procedure: The treated fruits are subsequently inoculated with a spore suspension of the fungus and incubated for one week at high atmospheric humidity and approximately 20° C. The fungicidal activity of the test substance is deduced from the number of the sites of damage where rotting has been observed.

Phytophthora infestans = type: in vivo; conditions: mixture of the labelled component I with component II = oxadixyl (II F), ofurace (II E), or in particular metalaxyl (II A) or R-metalaxyl (II B); tomato cv. Roter Gnom; a) curative 200 ppm, b) preventive-systemic 60 ppm relative to soil volume
Cercospora arachidicola = test: Residual-protective action against Cercospora arachidicola in groundnuts; type: in vivo; conditions: mixture of the labelled component I with component II; groundnut plants; 0.02% of active ingredient; assessed 12 days after infection
Procedure: The plants are incubated for 72 hours at 21° and high atmospheric humidity and subsequently placed in a greenhouse until the typical foliar lesions appear. The activity of the active ingredient is assessed 12 days after the infection on the basis of number and size of the foliar lesions.

Septoria nodorum = test: Activity against Septoria nodorum in wheat; type: in vivo; conditions: mixture of the labelled component I with component II; wheat 3-leaf stage; 60 ppm of a.i.; assessed 13 days after infection
Procedure: 13 days after the infection, the fungus infestation is assessed.

SMILES	synergistic effect of active ingredient mixture (fungus infestation) (Puccinia recondita)	synergistic effect of active ingredient mixture (percentage of Fusarium-infected plants) (Fusarium nivale)	synergistic effect of active ingredient mixture (fungus infestation) (Phytophthora)	synergistic effect of active ingredient mixture (fungus infestation) (Plasmopara viticola)	synergistic effect of active ingredient mixture (fungus infestation) (Erysiphe graminis)	activity of active ingredient mixture (number of sites of damage with rotting) (Botrytis cinerea)	synergistic effect of active ingredient mixture (number and size of foliar lesions) (Phytophthora infestans)	activity of active ingredient mixture (number and size of foliar lesions) (Cercospora arachidicola)	activity of active ingredient mixture (fungus infestation) (Septoria nodorum)
CON=C(C(=O)OC)c1ccccc1CON=C(C)c1ccc2c(c1)OC(F)(F)O2 [(6), methyl 2-[α-{[(α-methyl-3,4-(difluoromethylenedioxy)benzyl)imino]-oxy}-o-tolyl]glyoxylate O-methyloxime]	good synergistic effect	good synergistic effect	good synergistic effect	marked synergistic effect	good synergistic effect				
CON=C(C(=O)OC)c1ccccc1CON=C(c1ccc(F)cc1)C1CC1 [(09), methyl 2-[α-{[(α-cyclopropyl-4-fluorobenzyl)imino]oxy}-o-tolyl]glyoxylate O-methyloxime]	good synergistic effect				good synergistic effect	markedly increased activity			
COC=C(C(=O)OC)c1ccccc1CON=C(C)c1ccc2c(c1)OCO2 [(12), methyl 3-methoxy-2-[α-{[(α-methyl-3,4-methylenedioxybenzyl)imino]oxy}-o-tolyl]acrylate]			good synergistic effect	marked synergistic effect			good synergistic effect		
CON=C(C(=O)OC)c1ccccc1CON=C(c1ccc(Cl)cc1)C1CC1 [(15), methyl 2-[α-{[(α-cyclopropyl-4-chlorobenzyl)imino]oxy}-o-tolyl]glyoxylate O-methyloxime]	good synergistic effect		good synergistic effect	marked synergistic effect	good synergistic effect	markedly increased activity	good synergistic effect	markedly increased activity	
COC=C(C(=O)OC)c1ccccc1CON=C(C)c1cccc(OC(F)(F)F)c1 [(18), methyl 3-methoxy-2-[α-{[(α-methyl-3-trifluoromethoxybenzyl)imino]oxy}-o-tolyl]acrylate]	good synergistic effect	good synergistic effect	good synergistic effect	marked synergistic effect	good synergistic effect	markedly increased activity		markedly increased activity	
COC=C(C(=O)OC)c1ccccc1CON=C(C)c1cccc(C(F)(F)F)c1 [(24), methyl 3-methoxy-2-[α-{[(α-methyl-3-trifluoromethylbenzyl)imino]oxy}-o-tolyl]acrylate]			good synergistic effect		good synergistic effect	markedly increased activity	good synergistic effect	markedly increased activity	markedly increased activity
CON=C(C(=O)OC)c1ccccc1CON=C(C)c1ccc(Cl)cc1 [(25), methyl 2-[α-{[(α-methyl-4-chlorobenzyl)imino]oxy}-o-tolyl]glyoxylate O-methyloxime]					good synergistic effect				markedly increased activity
COC=C(C(=O)OC)c1ccccc1CON=C(C)c1ccc(Cl)cc1 [(26), methyl 3-methoxy-2-[α-{[(α-methyl-4-chlorobenzyl)imino]oxy}-o-tolyl]acrylate]		good synergistic effect						markedly increased activity	
COC=C(C(=O)OC)c1ccccc1CON=C(C)c1ccc2c(c1)OC(F)(F)O2 [(29), methyl 3-methoxy-2-[α-{[(α-methyl-3,4-(difluoromethylenedioxy)benzyl)-imino]oxy}-o-tolyl]acrylate]	good synergistic effect								
CON=C(C(=O)OC)c1ccccc1CON=C(C)c1cccc(OC(F)(F)F)c1 [(32), methyl 2-[α-{[(α-methyl-3-trifluoromethoxybenzyl)imino]oxy}-o-tolyl]glyoxylate O-methyloxime]	good synergistic effect	good synergistic effect	good synergistic effect	marked synergistic effect	good synergistic effect	markedly increased activity	good synergistic effect	markedly increased activity	markedly increased activity
CON=C(C(=O)OC)c1ccccc1CON=C(C)c1cccc(C(F)(F)F)c1 [(35), methyl 2-[α-{[(α-methyl-3-trifluoromethylbenzyl)imino]oxy}-o-tolyl]glyoxylate O-methyloxime]	good synergistic effect		good synergistic effect	marked synergistic effect	good synergistic effect	markedly increased activity	good synergistic effect		markedly increased activity
COC=C(C(=O)OC)c1ccccc1CON=C(c1ccc(Cl)cc1)C1CC1 [(36), methyl 3-methoxy-2-[α-{[(α-cyclopropyl-4-chlorobenzyl)imino]oxy}-o-tolyl]acrylate]					good synergistic effect	markedly increased activity	good synergistic effect	markedly increased activity	markedly increased activity
CON=C(C(=O)OC)c1ccccc1CON=C(c1ccc(C(F)(F)F)cc1)C1CC1 [(37)]					good synergistic effect				
CON=C(C(=O)OC)c1ccccc1CON=C(c1ccc(OC(F)(F)F)cc1)C1CC1 [(38), methyl 2-[α-{[(α-cyclopropyl-4-trifluoromethoxybenzyl)imino]oxy}-o-tolyl]glyoxylate O-methyloxime]		good synergistic effect						markedly increased activity	
